Where two headings read alike, the source gives them in different places.
Columns and labels:
[1] = tested on: HBCx-95 xenografts (triple negative breast cancer PDX); test: Capecitabine treatment of HBCx-95 patient-derived xenografts (relative tumor volume, response); assay type: in vivo, Swiss nude mice; conditions: HBCx-95 xenograft, mouse #40, oral 540 mg/kg/day, second round after recurrence
Text: Female Swiss nude mice were purchased from Charles River Laboratories and maintained under specific pathogen-free conditions. Their care and housing were in accordance with institutional guidelines and the rules of the French Ethics Committee (project authorization no. 02163.02). A PDX model of luminal breast cancer (HBCx-22) was previously established at Institut Curie from untreated early-stage luminal breast cancer with informed consent from the patient. Acquisition of a resistant phenotype for a derivative of HBCx-22, HBCx-22-TamR, was previously established and maintained. A PDX from a residual triple negative breast cancer post neo-adjuvant chemotherapy (HBCx-95) was previously established at Institut Curie with informed consent from the patient. HBCx-95 xenografts (n=6) were treated with Capecitabine (Xeloda, Roche Laboratories) orally at a dose of 540 mg/kg/day, 5 days a week for 6 weeks. Relative tumor volumes (RTV, mm3) were calculated. Mice with recurrent tumors were treated for a second round of Capecitabine when PDX reached a volume of over 200 mm^3 (mice #35, #40 & #33).

[2] = tested on: HBCx-22 / HBCx-22-TamR luminal ER+ breast PDX; conditions: cited from earlier work

Structure (SMILES)	response of recurrent PDX tumor to a second round of Capecitabine [1]	response of PDX to Tamoxifen ([2]; HBCx-22-TamR tumor derivative, previously characterized)	response of PDX to Tamoxifen ([2]; HBCx-22 luminal ER+ breast PDX)
CCCCCOC(=O)Nc1nc(=O)n([C@@H]2O[C@H](C)[C@@H](O)[C@H]2O)cc1F [Capecitabine]	did not respond		
CC/C(=C(\c1ccccc1)c1ccc(OCCN(C)C)cc1)c1ccccc1 [Tamoxifen]		acquired resistance	responsive

From patent publication US20220206003A1, “BIOMARKERS FOR PREDICTING RESISTANCE TO CANCER DRUGS” (INSTITUT CURIE, priority 2019, published 2022)
